# Assay results from ChEMBL document CHEMBL5120747, “Mononucleoside phosphorodithiolates as mononucleotide prodrugs” (Eur J Med Chem, 2022).
# Assays:
# [1] = Prodrug conversion in human CEM-SS cell extract assessed as parent ddA formation at 0.00005 M measured at 50 to 150 hrs by HPLC analysis; assay type: ADME, cell-based; details: 50 µM, time 50-150 hrs
# [2] = tested on: CEM-SS; assay: Cytotoxicity against human CEM-SS cells assessed as reduction in cell viability; assay type: functional
# [3] = Cytotoxicity against human MT4 cells assessed as reduction in cell viability; assay type: toxicity, cell-based
# [4] = tested on: Human immunodeficiency virus 1; assay: Anti-HIV activity against HIV-1 infected in human MDM assessed as inhibition of viral replication; assay type: functional, organism-based
# [5] = tested on: Human immunodeficiency virus 1; assay: Anti-HIV activity against HIV-1 infected in human PBMC assessed as inhibition of viral replication; assay type: functional, organism-based; details: Human immunodeficiency virus 1, PBMC
# [6] = Cytotoxicity against human MDM assessed as reduction in cell viability; assay type: toxicity, cell-based
# [7] = Cytotoxicity against human PBMC assessed as reduction in cell viability; assay type: toxicity, cell-based
# [8] = tested on: Human immunodeficiency virus 1; assay: Anti-HIV activity against HIV-1 infected in human CEM-SS cells assessed as inhibition of viral replication; assay type: functional, organism-based; details: Human immunodeficiency virus 1, CEM-SS
# [9] = tested on: Human immunodeficiency virus 1; assay: Anti-HIV activity against HIV-1 infected in human MT4 cells assessed as inhibition of viral replication; assay type: functional, organism-based; details: Human immunodeficiency virus 1, MT4
# [10] = tested on: Human immunodeficiency virus 1; assay: Anti-HIV activity against HIV-1 infected in human CEM-TK(-) cells assessed as inhibition of viral replication; assay type: functional, organism-based; details: Human immunodeficiency virus 1, CEM-TK(-)
# [11] = tested on: CEM-TK(-); assay: Cytotoxicity against human CEM-TK(-) cells assessed as reduction in cell viability; assay type: functional
# [12] = Stability of compound in RPMI 1640 culture medium at pH 7.45 by HPLC analysis; assay type: physicochemical; details: buffer
# [13] = Stability of compound in phosphate buffer at pH 7.4 by HPLC analysis; assay type: physicochemical
# [14] = Prodrug conversion in human CEM-SS cell extract assessed as ddAMP formation at 0.00005 M measured at 100 to 500 mins by HPLC analysis; assay type: ADME, cell-based; details: 50 µM, time 100-500 min
# [15] = Stability of compound in RPMI 1640 culture medium at pH 7.45 assessed as compound half life by HPLC analysis; assay type: physicochemical
# [16] = Stability of compound in inactivated fetal calf serum with RPMI 1640 culture medium assessed as compound half life by HPLC analysis; assay type: ADME, cell-free, Bos taurus; details: cattle
# [17] = Prodrug conversion in human CEM-SS cell extract assessed as O-((2S,5R)-5-(6-amino-9H-purin-9-yl)tetrahydrofuran-2-yl)methyl S-2-(pivaloylthio)ethyl phos-phorothioate sodium salt metabolite formation at 0.00005 M measured at 5 to 15 hrs by HPLC analysis; assay type: ADME, cell-based; details: 50 µM, time 5-15 hrs
# [18] = Stability of compound in human CEM-SS cell extract at pH 7.45 assessed as compound half life by HPLC analysis; assay type: ADME, cell-based
# [19] = Stability of compound in phosphate buffer at pH 7.4 assessed as compound half life by HPLC analysis; assay type: physicochemical
# [20] = Prodrug conversion in human CEM-SS cell extract assessed as metabolite X formation at 0.00005 M measured at 100 to 500 mins by HPLC analysis; assay type: ADME, cell-based; details: 50 µM, time 100-500 min
# [21] = Prodrug conversion in inactivated fetal calf serum with RPMI 1640 culture medium assessed as S-(O-pivaloyl-2-oxyethyl)O-2',3'-dideoxyadenosin-5'-yl phos-phorothiolate diester sodium salt metabolite formation at 0.00005 M measured at 50 to 150 hrs by HPLC analysis; assay type: ADME, cell-free, Bos taurus; details: cattle, 50 µM, time 50-150 hrs
# [22] = Prodrug conversion in human CEM-SS cell extract assessed as S-(O-pivaloyl-2-oxyethyl)O-2',3'-dideoxyadenosin-5'-yl phos-phorothiolate diester sodium salt metabolite formation at 0.00005 M measured at 5 to 15 hrs by HPLC analysis; assay type: ADME, cell-based; details: 50 µM, time 5-15 hrs
Structure (SMILES),CC50 [2] [nM],CC50 [3] [nM],EC50 [8] [nM],EC50 [9] [nM],EC50 [10] [nM],CC50 [11] [nM],also measured
Nc1ncnc2c1ncn2[C@H]1CC[C@@H](COP(=O)(O)O)O1,–,–,–,–,–,–,Drug metabolism [1]: Metabolite_Detected
Nc1ncnc2c1ncn2[C@H]1CC[C@@H](CO)O1,> 100000,> 100000,490,7800,–,–,EC50 [4]: 120 nM; EC50 [5]: 240 nM; CC50 [6]: 100000 nM; CC50 [7]: > 100000 nM
Cc1cn([C@H]2CC[C@@H](CO)O2)c(=O)[nH]c1=O,> 100000,> 100000,700,16000,> 100000,> 100000,–
Cc1cn([C@H]2CC[C@@H](COP(=O)(OCCSC(=O)C(C)(C)C)OCCSC(=O)C(C)(C)C)O2)c(=O)[nH]c1=O,> 10000,> 10000,220,2500,50,> 10000,–
Cc1cn([C@H]2C=C[C@@H](COP(=O)(SCCOC(=O)C(C)(C)C)SCCOC(=O)C(C)(C)C)O2)c(=O)[nH]c1=O,> 10000,> 10000,27,99,5,8000,–
Cc1cn([C@H]2CC[C@@H](COP(=O)(SCCOC(=O)C(C)(C)C)SCCOC(=O)C(C)(C)C)O2)c(=O)[nH]c1=O,> 10000,> 10000,80,900,50,> 10000,–
CC(C)(C)C(=O)OCCSP(=O)([O-])OC[C@@H]1CC[C@H](n2cnc3c(N)ncnc32)O1.[Na+],–,–,–,–,–,–,Stability [12]: Stable; Stability [13]: Stable; Drug metabolism [14]: Metabolite_Detected
CC(C)(C)C(=O)SCCOP(=O)(OCCSC(=O)C(C)(C)C)OC[C@@H]1C=C[C@H](n2cnc3c(N)ncnc32)O1,5900,9000,18,320,–,–,half-life [15]: 302 h; half-life [16]: 166 h; Drug metabolism [17]: Metabolite_Detected; EC50 [4]: 0.16 nM; EC50 [5]: 47 nM; CC50 [6]: 3600 nM; CC50 [7]: 1700 nM; half-life [18]: 1 h; half-life [19]: 432 h
CC(C)(C)C(=O)SCCOP(=O)([O-])OC[C@@H]1CC[C@H](n2cnc3c(N)ncnc32)O1.[Na+],–,–,–,–,–,–,Stability [12]: Stable; Stability [13]: Stable; Drug metabolism [20]: Metabolite_Detected; Drug metabolism [14]: Metabolite_Detected
Cc1cn([C@H]2C=C[C@@H](COP(=O)(OCCSC(=O)C(C)(C)C)OCCSC(=O)C(C)(C)C)O2)c(=O)[nH]c1=O,> 10000,> 10000,30,260,21,4600,–
CC(C)(C)C(=O)OCCSP(=O)(OC[C@@H]1CC[C@H](n2cnc3c(N)ncnc32)O1)SCCOC(=O)C(C)(C)C,> 10000,> 1000,25,270,–,–,half-life [15]: 52.8 h; half-life [16]: 38.4 h; EC50 [4]: 0.23 nM; EC50 [5]: 20 nM; CC50 [6]: 8600 nM; CC50 [7]: > 10000 nM; Drug metabolism [21]: Metabolite_Detected; Drug metabolism [22]: Metabolite_Detected; half-life [18]: 5.3 h; half-life [19]: 69.6 h
Cc1cn([C@H]2C=C[C@@H](CO)O2)c(=O)[nH]c1=O [STAVUDINE],> 100000,> 100000,59,280,> 10000,> 100000,–
